# Data as given in ChEMBL document CHEMBL5729193, “Aromatic vinyl or aromatic ethyl derivative, preparation method therefor, intermediate, pharmaceutical composition, and application” (2022).
# Target: Programmed cell death protein 1/Programmed cell death 1 ligand 1 (Homo sapiens, UniProt Q15116+Q9NZQ7)
# Experiment: Homogenouse Time-Resolved Fluorescence (HTRF) Binding Assay: Experimental Procedure1. The compound was formulated to 10 concentrations with a three-fold concentration gradient with 100% DMSO.2. The solution of the compound in DMSO was added to Dilute Buffer, and mixed evenly and then transferred to a 96-well plate.3. PD-L1 was diluted with Dilute Buffer and added to the 96-well plate above.4. PD-1 was diluted with Dilute Buffer, then added to the 96-well plate above and incubated at room temperature for 30 minutes.5. One portion of anti-tag1-Eu and one portion of anti-tag2-XL665 were added to Detection Buffer, mixed evenly and transferred to the 96-well plate above.6. The mixed solution in the 96-well plate were incubated at room temperature for 1 to 24 hours.7. HTRF values were read by Envision.
# Format: protein-complex assay
# Sequence of Programmed cell death protein 1/Programmed cell death 1 ligand 1 (Q15116 whole entry): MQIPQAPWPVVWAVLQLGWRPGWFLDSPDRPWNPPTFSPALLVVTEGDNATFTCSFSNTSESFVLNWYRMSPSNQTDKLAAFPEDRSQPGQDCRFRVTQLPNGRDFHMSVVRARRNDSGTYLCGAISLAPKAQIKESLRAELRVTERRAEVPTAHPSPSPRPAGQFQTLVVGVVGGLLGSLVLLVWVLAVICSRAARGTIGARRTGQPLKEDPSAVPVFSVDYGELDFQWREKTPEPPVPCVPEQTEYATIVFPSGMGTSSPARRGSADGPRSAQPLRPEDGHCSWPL
# Sequence of Programmed cell death protein 1/Programmed cell death 1 ligand 1 (Q9NZQ7 whole entry): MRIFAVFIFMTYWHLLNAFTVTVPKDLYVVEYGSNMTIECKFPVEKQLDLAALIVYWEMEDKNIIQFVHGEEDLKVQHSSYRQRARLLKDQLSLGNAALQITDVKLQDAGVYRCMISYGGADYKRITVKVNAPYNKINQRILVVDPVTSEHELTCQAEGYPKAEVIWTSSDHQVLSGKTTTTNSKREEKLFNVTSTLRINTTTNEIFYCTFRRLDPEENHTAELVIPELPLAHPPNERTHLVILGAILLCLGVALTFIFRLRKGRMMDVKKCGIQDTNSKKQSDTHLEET
row,Structure (SMILES),IC50 [nM]
1,Cc1c(/C=C/c2cc(CNC(CO)C(=O)O)ccc2C(F)(F)F)cccc1-c1ccc2c(c1)OCCO2 (configuration not stated),14
2,Cc1c(/C=C/c2cc(CN[C@@](C)(CO)C(=O)O)ccc2C(F)(F)F)cccc1-c1ccccn1,2200
3,Cc1c(/C=C/c2cc(CNC(C)(CO)C(=O)O)ccc2C(F)(F)F)cccc1-c1ccccc1F (configuration not stated),20
4,Cc1ccc(CNC(C)(CO)C(=O)O)cc1/C=C/c1cccc(-c2cccc(F)c2)c1C (configuration not stated),57
5,Cc1c(/C=C/c2cc(CN[C@@](C)(CO)C(=O)O)ccc2C(F)(F)F)cccc1-c1cnccn1,540
6,Cc1c(/C=C/c2cc(CNC(C)(CO)C(=O)O)ccc2C(F)(F)F)cccc1-c1cccc(F)c1 (configuration not stated),46
7,COc1ccc(-c2cccc(/C=C/c3cc(CNC(C)(CO)C(=O)O)ccc3C)c2C)cc1 (configuration not stated),3100
8,Cc1c(CCc2cc(CNC(C)(CO)C(=O)O)ccc2C(F)(F)F)cccc1-c1ccccc1 (configuration not stated),85
9,Cc1c(/C=C/c2cc(CNC(C)(CO)C(=O)O)ccc2C(F)(F)F)cccc1-c1ccc(F)cc1 (configuration not stated),320
10,Cc1c(/C=C/c2cc(CN[C@@](C)(CO)C(=O)O)ccc2C(F)(F)F)cccc1-c1cccnc1,580
11,Cc1c(/C=C/c2cc(CN[C@@](C)(CO)C(=O)O)ccc2C(F)(F)F)cccc1-c1ccc2ncoc2c1,1100
12,Cc1c(/C=C/c2cc(CNC(CO)C(=O)O)ccc2C(F)(F)F)cccc1-c1ccccc1F (configuration not stated),13
13,Cc1c(/C=C/c2cc(C(C)NCC(=O)O)ccc2C(F)(F)F)cccc1-c1ccccc1 (configuration not stated),24
14,Cc1c(CCc2cc(CNC(CO)C(=O)O)ccc2C(F)(F)F)cccc1-c1ccccc1 (configuration not stated),46
15,Cc1c(CCc2cc(CNC(C)C(=O)O)ccc2C(F)(F)F)cccc1-c1ccccc1 (configuration not stated),44
16,Cc1c(/C=C/c2cc(CN[C@@](C)(CO)C(=O)O)ccc2C(F)(F)F)cccc1-c1ccc2cn(C)nc2c1,880
17,Cc1ccc(CNC(C)(CO)C(=O)O)cc1/C=C/c1cccc(-c2ccc(F)cc2)c1C (configuration not stated),1400
